From ChEMBL document CHEMBL1157601, “1-Alkyl-4-phenyl-6-alkoxy-1H-quinazolin-2-ones: a novel series of potent calcium-sensing receptor antagonists” (J Med Chem, 2010)
In brackets after ≈: the same amount, converted by molar mass. Activity calls are given as the source filed them. No cut-off for these calls is given here.

How the values were obtained:
[1] = target: T1, Extracellular calcium-sensing receptor (Homo sapiens, UniProt P41180); assay: Antagonist activity at human CaSR expressed in CCL39 cells assessed as inhibition of extracellular calcium-induced intracellular calcium transient by FLIPR assay; type: functional, cell-based
T1 sequence (P41180 whole entry): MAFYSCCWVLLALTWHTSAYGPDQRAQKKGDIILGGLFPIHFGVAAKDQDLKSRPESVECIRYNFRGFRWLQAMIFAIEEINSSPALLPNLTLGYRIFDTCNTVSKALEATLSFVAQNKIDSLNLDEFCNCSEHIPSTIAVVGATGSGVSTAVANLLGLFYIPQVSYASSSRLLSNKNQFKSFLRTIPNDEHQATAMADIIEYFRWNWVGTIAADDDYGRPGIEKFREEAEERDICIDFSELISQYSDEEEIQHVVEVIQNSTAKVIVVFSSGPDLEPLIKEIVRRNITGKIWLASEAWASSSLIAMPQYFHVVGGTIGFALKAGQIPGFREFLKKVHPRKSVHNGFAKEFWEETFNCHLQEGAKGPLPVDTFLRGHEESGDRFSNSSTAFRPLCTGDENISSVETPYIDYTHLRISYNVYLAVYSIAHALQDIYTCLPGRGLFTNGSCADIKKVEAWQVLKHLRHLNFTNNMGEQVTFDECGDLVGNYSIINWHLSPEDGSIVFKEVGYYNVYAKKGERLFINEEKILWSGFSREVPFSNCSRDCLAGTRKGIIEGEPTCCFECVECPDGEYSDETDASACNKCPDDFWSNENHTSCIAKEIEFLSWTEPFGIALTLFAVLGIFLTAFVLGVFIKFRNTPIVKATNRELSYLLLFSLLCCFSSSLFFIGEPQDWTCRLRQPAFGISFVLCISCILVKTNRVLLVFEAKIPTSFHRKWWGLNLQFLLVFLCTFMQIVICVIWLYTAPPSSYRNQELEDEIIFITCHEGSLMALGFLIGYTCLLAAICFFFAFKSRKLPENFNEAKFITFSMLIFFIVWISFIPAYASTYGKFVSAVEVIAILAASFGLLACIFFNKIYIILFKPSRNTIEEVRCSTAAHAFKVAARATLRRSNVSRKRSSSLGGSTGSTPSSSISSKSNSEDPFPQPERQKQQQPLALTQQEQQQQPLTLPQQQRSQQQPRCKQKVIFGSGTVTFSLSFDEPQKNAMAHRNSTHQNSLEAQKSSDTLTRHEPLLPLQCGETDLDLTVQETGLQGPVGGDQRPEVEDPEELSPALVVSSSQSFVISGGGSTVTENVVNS

Rattus norvegicus [2] = assay: Induction of PTH release in iv dosed Wistar rat by radioimmunoassay; type: functional, organism-based
[3] = Aqueous solubility at pH 6.8; type: physicochemical
[4] = Oral bioavailability in rat; type: ADME, organism-based; settings: in vivo
[5] = Aqueous solubility at pH 1.0; type: physicochemical
Rattus norvegicus [6] = assay: Induction of PTH release in Wistar rat assessed as PTH Cmax in blood at 3 mg/kg, po by radioimmunoassay; type: functional
Canis familiaris [7] = assay: Induction of PTH release in Beagle dog at 3 mg/kg, po by radioimmunoassay; type: functional, Canis lupus familiaris
Rattus norvegicus [8] = assay: Induction of PTH release in Wistar rat assessed as PTH Cmax in blood at 30 mg/kg, po by radioimmunoassay; type: functional
Canis familiaris [9] = assay: Induction of PTH release in Beagle dog assessed as PTH Cmax in blood at 0.3 mg/kg, po by radioimmunoassay; type: functional, Canis lupus familiaris

Compound	IC50 [1]	Activity (Rattus norvegicus [2])	further results
C=CCNc1ccc2c(c1)c(-c1ccc(C(C)C)cc1)nc(=O)n2C(C)C	0.07 µM	Active	
C#CCOc1ccc2c(c1)c(-c1ccc(C(C)C)cc1)nc(=O)n2Cc1cccc(C)c1	0.0018 µM	Active	
CCCc1c(O)ccc2c1c(-c1ccc(C(C)C)cc1)nc(=O)n2Cc1ccccc1	0.0066 µM	Active	
CCCN(CCC)c1ccc2c(c1)c(-c1ccc(C(C)C)cc1)nc(=O)n2C(C)C	2.9 µM	Active	
COc1ccc2c(c1)c(-c1ccc(C(C)C)cc1)nc(=O)n2C(C)C	1.4 µM	Active	
C#CCNc1ccc2c(c1)c(-c1ccc(C(C)C)cc1)nc(=O)n2C(C)C	0.03 µM	Active	
CCCCOc1ccc2c(c1)c(-c1ccc(C(C)C)cc1)nc(=O)n2C(C)C	3.7 µM	Active	
C#CCOc1ccc2c(c1)c(-c1ccc(C(C)C)cc1)nc(=O)n2Cc1ccc(C(C)C)cc1	0.027 µM	Active	
C#CCOc1ccc2c(c1)c(-c1ccc(C(C)C)cc1)nc(=O)n2Cc1cccc(OCC(=O)O)c1	0.0034 µM	Active	
C#CCOc1ccc2c(c1)c(-c1ccc(C(C)C)cc1)nc(=O)n2Cc1cccc(OC)c1	0.0027 µM	Active	
C#CCOc1ccc2c(c1)c(-c1ccc(C(C)C)cc1)nc(=S)n2Cc1cccc(OCCO)c1	0.0004 µM	Active	
C#CCOc1ccc2c(c1)c(-c1ccc(C(C)C)cc1)nc(=O)n2Cc1ccc(CC)cc1	0.0042 µM	Active	
C#CCOc1ccc2c(c1)c(-c1ccc(C(C)C)cc1)nc(=O)n2Cc1cccc(CC)c1	0.013 µM	Active	
C#CCOc1ccc2c(c1)c(-c1ccc(C(C)C)cc1)nc(=O)n2Cc1cccc(NC(=O)CN2CCN(C)CC2)c1	0.0024 µM	Active	solubility [3]: 20 µg/mL (≈ 35.5 µM); bioavailability [4]: 1%; solubility [5]: > 200 µg/mL
CC(C)c1ccc(-c2nc(=O)n(Cc3ccccc3)c3ccc(O)c(CC4CC4)c23)cc1	0.0025 µM	Active	
CCCNc1ccc2c(c1)c(-c1ccc(C(C)C)cc1)nc(=O)n2C(C)C	1.1 µM	Active	
C=CCOc1ccc2c(c1)c(-c1ccc(C(C)C)cc1)nc(=O)n2C(C)C	0.18 µM	Active	
CC#CCOc1ccc2c(c1)c(-c1ccc(C(C)C)cc1)nc(=O)n2C(C)C	0.17 µM	Active	
COc1ccc2c(c1)c(-c1ccc(C(C)(C)C)cc1)nc(=O)n2C(C)C	2.1 µM	Active	
C#CCOc1ccc2c(c1)c(-c1ccc(C(C)C)cc1)nc(=O)n2Cc1ccc(OCC)cc1	0.019 µM	Active	
C#CCOc1ccc2c(c1)c(-c1ccc(C(C)C)cc1)nc(=O)n2Cc1cccc(OCCO)c1	0.0073 µM	Active	
CC(C)Oc1ccc2c(c1)c(-c1ccc(C(C)C)cc1)nc(=O)n2C(C)C	2.7 µM	Active	
C#CCN(CC#C)c1ccc2c(c1)c(-c1ccc(C(C)C)cc1)nc(=O)n2C(C)C	0.12 µM	Active	
COc1ccc2c(c1)c(-c1ccc(OC(C)C)cc1)nc(=O)n2C(C)C	> 30 µM	Active	

Compound	IC50 [1]	Activity (Rattus norvegicus [2])	further results
C#CCOc1ccc2c(c1)c(-c1ccc(C(C)C)cc1)nc(=O)n2Cc1ccc(C)cc1	0.0016 µM	Active	
CCCOc1ccc2c(c1)c(-c1ccc(C(C)C)cc1)nc(=O)n2C(C)C	1.1 µM	Active	
COc1ccc2c(c1)c(-c1ccc(C3CC3)cc1)nc(=O)n2C(C)C	3.3 µM	Active	
C#CCOc1ccc2c(c1)c(-c1ccc(C(C)C)cc1)nc(=O)n2Cc1cccc(NC(=O)CN2CCN(CCCN(C)C)CC2)c1	0.0081 µM	Active	solubility [3]: 100 µg/mL (≈ 158 µM); bioavailability [4]: 8%; solubility [5]: > 200 µg/mL
CCNc1ccc2c(c1)c(-c1ccc(C(C)C)cc1)nc(=O)n2C(C)C	0.46 µM	Active	
C=CCN(C)c1ccc2c(c1)c(-c1ccc(C(C)C)cc1)nc(=O)n2C(C)C	0.23 µM	Active	
C#CCOc1ccc2c(c1)c(-c1ccc(C(C)C)cc1)nc(=O)n2Cc1ccc(OC)c(OCC)c1 [ATF-936]	0.0014 µM	Active	
C#CCOc1ccc2c(c1)c(-c1ccc(C(C)C)cc1)nc(=O)n2C(C)C	0.009 µM	Active	Activity (Rattus norvegicus [6]): 280 pgequiv/ml; Activity (Canis familiaris [7]): 50 pg·h/mL; solubility [3]: 20 µg/mL (≈ 55.5 µM); Activity (Rattus norvegicus [8]): 150 pgequiv/ml; bioavailability [4]: 20%; solubility [5]: 20 µg/mL (≈ 55.5 µM); Activity (Canis familiaris [9]): 300 pgequiv/ml
CC(C)c1ccc(-c2nc(=O)n(C(C)C)c3ccc(NCc4ccccc4)cc23)cc1	10 µM	Active	
COc1ccc2c(c1)c(-c1ccc(-c3ccccc3)cc1)nc(=O)n2C(C)C	5.5 µM	Active	
CCOc1ccc2c(c1)c(-c1ccc(C(C)C)cc1)nc(=O)n2C(C)C	2.2 µM	Active	
COc1ccc2c(c1)c(-c1ccccc1)nc(=O)n2C(C)C	> 30 µM	Active	
COc1ccc2c(c1)c(-c1ccc(C(=O)O)cc1)nc(=O)n2C(C)C	> 30 µM	Active	
COc1ccc2c(c1)c(-c1ccc(C)cc1)nc(=O)n2C(C)C	> 30 µM	Active	
C=CCc1c(O)ccc2c1c(-c1ccc(C(C)C)cc1)nc(=O)n2Cc1ccccc1	0.0039 µM	Active	
CCc1ccc(-c2nc(=O)n(C(C)C)c3ccc(OC)cc23)cc1	2.1 µM	Active	
C#CCOc1ccc2c(c1)c(-c1ccc(C(C)C)cc1)nc(=O)n2Cc1cccc(NC(=O)CN2CCN(CCOC)CC2)c1	0.013 µM	Active	solubility [3]: 20 µg/mL (≈ 32.9 µM); bioavailability [4]: 1%; solubility [5]: > 200 µg/mL
C#CCOc1ccc2c(c1)c(-c1ccc(C(C)C)cc1)nc(=O)n2Cc1ccccc1	0.0044 µM	Active	
COC(=O)c1ccc(-c2nc(=O)n(C(C)C)c3ccc(OC)cc23)cc1	> 30 µM	Active	
C#CCOc1ccc2c(c1)c(-c1ccc(C(C)C)cc1)nc(=O)n2Cc1ccc(OCC(=O)O)cc1	0.0126 µM	Active	
CCN(CC)c1ccc2c(c1)c(-c1ccc(C(C)C)cc1)nc(=O)n2C(C)C	0.52 µM	Active	
C#CCOc1ccc2c(c1)c(-c1ccc(C(C)C)cc1)nc(=O)n2Cc1ccc(OC)cc1	0.0042 µM	Active	
CC(C)c1ccc(-c2nc(=O)n(C(C)C)c3ccc(O)cc23)cc1	15.9 µM	Active	
